Measurements reported in US20190269705A1, “METHODS AND MATERIALS FOR TREATING GRAFT VERSUS HOST DISEASE” (Regents of the University of Minnesota, priority 2017, published 2019).
“Also recorded” adds a separate entry of the source.

Legend:
Th17 cells [1] = test: Nutrient uptake and secretion by NMR; type: cell-based, mouse
Th17 cells [2] = test: CD4 T cells in Th17 skewing conditions, flow cytometry
[3] = test system: CD4 T cells (Th0 conditions); test: CD4 T cells activated and cultured in IL2 (Th0 conditions), flow cytometry
Th17 cells [4] = test: RNA-Seq and gene set enrichment analysis, Th17; type: cell-based, mouse
Procedure: ATAC-Seq: Crude nuclei pellets were isolated as described elsewhere (see, e.g., Buenrostro et al., 2013 Nat Meth. 10(12):1213-1218) with modifications. Briefly, naïve CD4 T cells were skewed to Th1 and Th17 subsets in vitro with vehicle or in the presence of 500 nM CB839. At Day 5, T cells were re-isolated for CD4+ cells using Miltenyi CD4+ negative selection kit (Cat #: 130-104-454). 1×10^5 cells were removed for nuclei extraction in ATAC-Seq lysing buffer. Cells were exposed to Tn5+ adaptor proteins from Nextera DNA for 30 min at 37° C. and immediately placed on ice. Transposed eluate was amplified via PCR using Nextera DNA preparation kit (Illumina, Cat #: FC-121-1030), NEBNext High-fidelity 2× PCR mix (New England Labs, Cat #: M0541), and multiplexed (Illumina, Cat #: FC-121-1011). Samples were purified using Zymo DNA cleanup kit (Cat #: D4011). QC of samples was run on bioanalyzer before being sent for sequencing. RNA-Seq: Th1 and Th17 cells skewed with or without CB839 were isolated as previously described and total RNA extracted (Qiagen RNEasy Mini kit, Cat #: 74104). RNA was sent to VANTAGE core at Vanderbilt University and sequenced on HiSeq 2500. n=3 for each sample was analyzed. Samples were analyzed using the R program DESeq2. GSEA was performed using MSigDB.
Th1 and Th17 cells were skewed with or without CB839 over 5 days and total RNA extracted for RNAseq (Cat #: 74104). RNA was sent to VANderbilt Technologies for Advanced GEnomics (VANTAGE) core at Vanderbilt University. Libraries were prepared using 50 ng of total RNA using the NEBNext Ultra RNA Library Kit for Illumina (Cat #E7530) and sequenced on HiSeq3000 at 75 bp paired-end. Each sample was analyzed in triplicate. Sequencing reads were aligned against the Mouse GENCODE genome, Version M14 (Jan. 2017 freeze, GRCm38, Ensembl 89) using the Spliced Transcripts Alignment to a Reference (STAR) software (ref: 26187010 and 23104886). Reads were preprocessed and index using SAMtools (ref: 19505943). Mapped reads were assigned to gene features and quantified using featureCounts (ref: 24227677). Normalization and differential expression was performed using DESeq2 (Love et al., 2014). Skewed lymphocytes with and without CB839 were compared in both Th1 and Th17 groups. […] The top 200 most differentially expressed genes were used for unsupervised hierarchical cluster analysis and visualized using heatmap representations.

naïve CD4+ T cells = test: Extracellular Acidification Rate on instantaneous T cell activation (Seahorse); type: cell-based, mouse; conditions: αCD3/CD28 injection in the presence of vehicle or CB839
Procedure: Experiments were carried out on Agilent Seahorse XF96 bioanalyzer (Agilent). Briefly, wild type CD4+ cells were isolated as previous and activated for 3 days on CD3/CD28 as previously described, or skewed to Th1 and Th17 subsets as described above. T cells were spun onto XF96 Cell-Tak (BD Bioscience, Cat #: 354240) coated plates and rested in Seahorse XF RPMI 1640 media supplemented with glutamine, sodium pyruvate, and glucose. For immediate metabolic response, CB839 and UK5099 were injected separately or in combination, and OCR and ECAR measured.
Experiments were carried out on Agilent Seahorse XF96 bioanalyzer (Agilent). Briefly, wild type CD4+ cells were isolated as previous and activated for 3 days on αCD3/CD28 coated plates as previously described, or skewed to Th1 and Th17 subsets as described above. T cells were isolated and spun onto XF96 Cell-Tak (BD Bioscience, Cat #: 354240) coated plates and rested in Seahorse XF RPMI 1640 media supplemented with glutamine, sodium pyruvate, and glucose. For immediate metabolic response, 1 μM CB839 and 5 μM UK5099 (Cat #: PZ0160-5MG) were injected separately or in combination, and OCR and ECAR measured. For activation response, 1 uM CB839 was injected into IL-7 maintained naïve CD4+ T cells in seahorse medium and allowed to incubate for 20 minutes, followed by soluble αCD3/CD28 injection.

[5] = activated CD4 T cells, IL2, day 5
[6] = Th17 Cells: Decreased Pathways, HALLMARK_CHOLESTEROL_HOMEOSTASIS
[7] = Th17 Cells: Decreased Pathways, HALLMARK_E2F_TARGETS
[8] = Th17 Cells: Decreased Pathways, HALLMARK_G2M_CHECKPOINT
[9] = Th17 Cells: Decreased Pathways, HALLMARK_GLYCOLYSIS
[10] = Th17 Cells: Decreased Pathways, HALLMARK_IL2_STAT5_SIGNALING
[11] = Th17 Cells: Decreased Pathways, HALLMARK_MTORC1_SIGNALING
[12] = Th17 Cells: Decreased Pathways, HALLMARK_MYC_TARGETS_V1
[13] = Th17 Cells: Decreased Pathways, HALLMARK_MYC_TARGETS_V2
[14] = Th17 Cells: Decreased Pathways, HALLMARK_TNFA_SIGNALING_VIA_NFKB
[15] = Th17 Cells: Decreased Pathways, HALLMARK_UNFOLDED_PROTEIN_RESPONSE
[16] = Th17 Cells: Increased Pathways, HALLMARK_APICAL_JUNCTION
[17] = Th17 Cells: Increased Pathways, HALLMARK_COMPLEMENT
[18] = Th17 Cells: Increased Pathways, HALLMARK_EPITHELIAL_MESENCHYMAL_TRANSITION
[19] = Th17 Cells: Increased Pathways, HALLMARK_HYPOXIA
[20] = Th17 Cells: Increased Pathways, HALLMARK_INFLAMMATORY_RESPONSE
[21] = Th17 Cells: Increased Pathways, HALLMARK_INTERFERON_GAMMA_RESPONSE
[22] = Th17 Cells: Increased Pathways, HALLMARK_MYOGENESIS
[23] = Th17 Cells: Increased Pathways, HALLMARK_P53_PATHWAY
[24] = Th17 Cells: Increased Pathways, HALLMARK_TNFA_SIGNALING_VIA_NFKB
[25] = Th17 Cells: Increased Pathways, HALLMARK_XENOBIOTIC_METABOLISM

Which results are given for `O=C(Cc1cccc(OC(F)(F)F)c1)Nc1ccc(CCCCc2nnc(NC(=O)Cc3ccccn3)s2)nn1` [CB839]?
glutamine uptake and glutamate, pyruvate, and lactate secretion (Th17 cells [1]): reduced upon GLS inhibition; Myc protein (Th17 cells [2]; Th17): modestly increased Myc in Th1 but not Th17 cells; proliferation (Th17 cells [2]; Th17): decreased cytokine production and proliferation only from Th17 cells; H3K27 tri-methylation, initially (Th17 cells [2]; Th17, Day 3): increased H3K27 tri-methylation; proliferation (Th17 cells [2]; Th17, after three days in culture): impaired proliferation; ROS (DCFDA) (Th17 cells [2]; Th17, day 5): ROS increased; expression of KLRG1 and PD1 (Th17 cells [2]; Th17, day 5): decreased or unchanged; global H3K27 trimethylation (Th17 cells [2]; Th17, day 5, normalized to total H3): increased; phospho-S6 (Th17 cells [2]; Th17, day 5, with IL2): decreased phosphor-S6; also recorded: decreased phospho-S6; ROS (DCFDA) (Th17 cells [2]; Th17, day 5, listed as CD839): increased ROS; global H3K4 trimethylation (Th17 cells [2]; Th17, day five): increased; total rRNA levels per cell (Th17 cells [2]; Th17, day five): decreased; Th17 cytokine production and differentiation (Th17 cells [2]; Th17 skewing, 5 days, CB839 vs vehicle): decreased cytokine production and proliferation only from Th17 cells; induction of Treg (Foxp3) (Th17 cells [2]; under Th17 conditions): failed to do so; Foxp3 expression ([3]; CD4+ T cells stimulated in the presence of IL-2 and CB839): unchanged; phospho-S6 ([3]; Th0 cells in the presence of IL2): enhanced phospho-S6; IFNγ expression [3, 5]: greater expression of IFNγ; Tbet expression [3, 5]: greater expression; compensation by GLS2 at the RNA level (Th17 cells [4]; Th17, CB839-treated): No compensation by GLS2 at the RNA level; direction of the 200 genes with the most altered expression (Th17 cells [4]; Th17, CB839 vs vehicle): more of the most changed genes were downregulated; also recorded: more of these genes were downregulated; gene set enrichment: cell cycle, mTORC1, Myc, IL2 signaling pathways (Th17 cells [4]; Th17, CB839 vs vehicle): downregulated; # Genes in Overlap (k) (Th17 cells [4]; [6]): 25; k/K (Th17 cells [4]; [6]): 0.3378; # Genes in Overlap (k) (Th17 cells [4]; [7]): 107; k/K (Th17 cells [4]; [7]): 0.535; # Genes in Overlap (k) (Th17 cells [4]; [8]): 94; k/K (Th17 cells [4]; [8]): 0.47; # Genes in Overlap (k) (Th17 cells [4]; [9]): 31; k/K (Th17 cells [4]; [9]): 0.155; # Genes in Overlap (k) (Th17 cells [4]; [10]): 39; k/K (Th17 cells [4]; [10]): 0.195; # Genes in Overlap (k) (Th17 cells [4]; [11]): 70; k/K (Th17 cells [4]; [11]): 0.35; # Genes in Overlap (k) (Th17 cells [4]; [12]): 75; k/K (Th17 cells [4]; [12]): 0.375; # Genes in Overlap (k) (Th17 cells [4]; [13]): 31; k/K (Th17 cells [4]; [13]): 0.5345; # Genes in Overlap (k) (Th17 cells [4]; [14]): 34; k/K (Th17 cells [4]; [14]): 0.17; # Genes in Overlap (k) (Th17 cells [4]; [15]): 29; k/K (Th17 cells [4]; [15]): 0.2566; # Genes in Overlap (k) (Th17 cells [4]; [16]): 19; k/K (Th17 cells [4]; [16]): 0.095; # Genes in Overlap (k) (Th17 cells [4]; [17]): 17; k/K (Th17 cells [4]; [17]): 0.085; # Genes in Overlap (k) (Th17 cells [4]; [18]): 16; k/K (Th17 cells [4]; [18]): 0.08; # Genes in Overlap (k) (Th17 cells [4]; [19]): 15; k/K (Th17 cells [4]; [19]): 0.075; # Genes in Overlap (k) (Th17 cells [4]; [20]): 16; k/K (Th17 cells [4]; [20]): 0.08; # Genes in Overlap (k) (Th17 cells [4]; [21]): 25; k/K (Th17 cells [4]; [21]): 0.125; # Genes in Overlap (k) (Th17 cells [4]; [22]): 18; k/K (Th17 cells [4]; [22]): 0.09; # Genes in Overlap (k) (Th17 cells [4]; [23]): 19; k/K (Th17 cells [4]; [23]): 0.095; # Genes in Overlap (k) (Th17 cells [4]; [24]): 17; k/K (Th17 cells [4]; [24]): 0.085; # Genes in Overlap (k) (Th17 cells [4]; [25]): 17; k/K (Th17 cells [4]; [25]): 0.085; early events in T cell activation (ECAR) (naïve CD4+ T cells): did not to be affected
